According to the NIST ThermoML archive (doi:10.1016/j.jct.2016.06.012):
± gives the expanded uncertainty stated by the source.

Assay: xn = mol fraction of the nth substance listed
Conditions: 100 kPa, Liquid; for mass density: Vibrating tube method; for viscosity: Capillary tube (Ostwald / Ubbelohde) method

CCC[n+]1ccn(C)c1C.O=S(=O)([N-]S(=O)(=O)C(F)(F)F)C(F)(F)F + O=C1CCCO1
mass density (308.15 K, x1 = 0.0505): 1169.38 ± 9.5 kg/m3
mass density (308.15 K, x1 = 0.1001): 1211.58 ± 9.8 kg/m3
mass density (308.15 K, x1 = 0.1492): 1245.28 ± 10 kg/m3
mass density (308.15 K, x1 = 0.1998): 1273.9 ± 10 kg/m3
mass density (308.15 K, x1 = 0.3008): 1318.1 ± 11 kg/m3
mass density (308.15 K, x1 = 0.4031): 1351.01 ± 11 kg/m3
mass density (308.15 K, x1 = 0.5048): 1376.06 ± 11 kg/m3
mass density (308.15 K, x1 = 0.6031): 1395.28 ± 11 kg/m3
mass density (308.15 K, x1 = 0.6973): 1410.4 ± 11 kg/m3
mass density (308.15 K, x1 = 0.7994): 1424.03 ± 11 kg/m3
mass density (308.15 K, x1 = 0.8711): 1432.26 ± 11 kg/m3
mass density (308.15 K, x1 = 1): 1445 ± 12 kg/m3
viscosity (313.15 K, x1 = 0.0505): 1.82 ± 0.04 mPa·s
viscosity (313.15 K, x1 = 0.1001): 2.36 ± 0.05 mPa·s
viscosity (313.15 K, x1 = 0.1492): 3.18 ± 0.07 mPa·s
viscosity (313.15 K, x1 = 0.1998): 4.04 ± 0.09 mPa·s
viscosity (313.15 K, x1 = 0.3008): 6.09 ± 0.13 mPa·s
viscosity (313.15 K, x1 = 0.4031): 8.71 ± 0.19 mPa·s
viscosity (313.15 K, x1 = 0.5048): 12.55 ± 0.27 mPa·s
viscosity (313.15 K, x1 = 0.6031): 17.39 ± 0.37 mPa·s
viscosity (313.15 K, x1 = 0.6973): 22.52 ± 0.48 mPa·s
viscosity (313.15 K, x1 = 0.7994): 30.01 ± 0.64 mPa·s
viscosity (313.15 K, x1 = 0.8711): 36.05 ± 0.77 mPa·s
viscosity (313.15 K, x1 = 1): 46.53 ± 0.98 mPa·s
mass density (313.15 K, x1 = 0.0505): 1164.47 ± 9.4 kg/m3
mass density (313.15 K, x1 = 0.1001): 1206.67 ± 9.7 kg/m3
mass density (313.15 K, x1 = 0.1492): 1240.38 ± 10 kg/m3
mass density (313.15 K, x1 = 0.1998): 1269.01 ± 10 kg/m3
mass density (313.15 K, x1 = 0.3008): 1313.24 ± 11 kg/m3
mass density (313.15 K, x1 = 0.4031): 1346.18 ± 11 kg/m3
mass density (313.15 K, x1 = 0.5048): 1371.25 ± 11 kg/m3
mass density (313.15 K, x1 = 0.6031): 1390.5 ± 11 kg/m3
mass density (313.15 K, x1 = 0.6973): 1405.64 ± 11 kg/m3
mass density (313.15 K, x1 = 0.7994): 1419.29 ± 11 kg/m3
mass density (313.15 K, x1 = 0.8711): 1427.53 ± 11 kg/m3
mass density (313.15 K, x1 = 1): 1440.28 ± 12 kg/m3
viscosity (318.15 K, x1 = 0.0505): 1.68 ± 0.04 mPa·s
viscosity (318.15 K, x1 = 0.1001): 2.2 ± 0.05 mPa·s
viscosity (318.15 K, x1 = 0.1492): 2.97 ± 0.07 mPa·s
viscosity (318.15 K, x1 = 0.1998): 3.73 ± 0.08 mPa·s
viscosity (318.15 K, x1 = 0.3008): 5.5 ± 0.12 mPa·s
viscosity (318.15 K, x1 = 0.4031): 7.79 ± 0.17 mPa·s
viscosity (318.15 K, x1 = 0.5048): 10.94 ± 0.24 mPa·s
viscosity (318.15 K, x1 = 0.6031): 15.01 ± 0.32 mPa·s
viscosity (318.15 K, x1 = 0.6973): 19.07 ± 0.41 mPa·s
viscosity (318.15 K, x1 = 0.7994): 24.95 ± 0.53 mPa·s
viscosity (318.15 K, x1 = 0.8711): 29.91 ± 0.64 mPa·s
viscosity (318.15 K, x1 = 1): 38.4 ± 0.81 mPa·s
mass density (318.15 K, x1 = 0.0505): 1159.57 ± 9.4 kg/m3
mass density (318.15 K, x1 = 0.1001): 1201.76 ± 9.7 kg/m3
mass density (318.15 K, x1 = 0.1492): 1235.48 ± 9.9 kg/m3
mass density (318.15 K, x1 = 0.1998): 1264.13 ± 10 kg/m3
mass density (318.15 K, x1 = 0.3008): 1308.38 ± 10 kg/m3
mass density (318.15 K, x1 = 0.4031): 1341.35 ± 11 kg/m3
mass density (318.15 K, x1 = 0.5048): 1366.46 ± 11 kg/m3
mass density (318.15 K, x1 = 0.6031): 1385.73 ± 11 kg/m3
mass density (318.15 K, x1 = 0.6973): 1400.88 ± 11 kg/m3
mass density (318.15 K, x1 = 0.7994): 1414.55 ± 11 kg/m3
mass density (318.15 K, x1 = 0.8711): 1422.81 ± 11 kg/m3
mass density (318.15 K, x1 = 1): 1435.57 ± 11 kg/m3
viscosity (323.15 K, x1 = 0.0505): 1.58 ± 0.04 mPa·s
viscosity (323.15 K, x1 = 0.1001): 2.04 ± 0.05 mPa·s
viscosity (323.15 K, x1 = 0.1492): 2.73 ± 0.06 mPa·s
viscosity (323.15 K, x1 = 0.1998): 3.38 ± 0.08 mPa·s
viscosity (323.15 K, x1 = 0.3008): 4.93 ± 0.11 mPa·s
viscosity (323.15 K, x1 = 0.4031): 6.9 ± 0.15 mPa·s
viscosity (323.15 K, x1 = 0.5048): 9.56 ± 0.21 mPa·s
viscosity (323.15 K, x1 = 0.6031): 12.76 ± 0.27 mPa·s
viscosity (323.15 K, x1 = 0.6973): 16.4 ± 0.35 mPa·s
viscosity (323.15 K, x1 = 0.7994): 20.66 ± 0.44 mPa·s
viscosity (323.15 K, x1 = 0.8711): 24.69 ± 0.53 mPa·s
viscosity (323.15 K, x1 = 1): 31.89 ± 0.67 mPa·s
mass density (323.15 K, x1 = 0.0505): 1154.66 ± 9.4 kg/m3
mass density (323.15 K, x1 = 0.1001): 1196.85 ± 9.7 kg/m3
mass density (323.15 K, x1 = 0.1492): 1230.58 ± 9.9 kg/m3
mass density (323.15 K, x1 = 0.1998): 1259.24 ± 10 kg/m3
mass density (323.15 K, x1 = 0.3008): 1303.52 ± 10 kg/m3
mass density (323.15 K, x1 = 0.4031): 1336.53 ± 11 kg/m3
mass density (323.15 K, x1 = 0.5048): 1361.66 ± 11 kg/m3
mass density (323.15 K, x1 = 0.6031): 1380.96 ± 11 kg/m3
mass density (323.15 K, x1 = 0.6973): 1396.13 ± 11 kg/m3
mass density (323.15 K, x1 = 0.7994): 1409.83 ± 11 kg/m3
mass density (323.15 K, x1 = 0.8711): 1418.1 ± 11 kg/m3
mass density (323.15 K, x1 = 1): 1430.87 ± 11 kg/m3
